Experimental data reported in patent publication US8455514B2 (Aerie Pharmaceuticals, Inc., priority 2008, dated 2013).
Structures can show the parent of a compound that is named as a salt.

Assays:
eyes [1] = test: Topical pharmaceutical composition administered to the eyes as drops (present-tense composition examples); assay type: in vivo, patient; settings: composition of Example 90 (0.50 wt %)
Experimental: (§1) Topical pharmaceutical compositions for lowering intraocular pressure are prepared by conventional methods and formulated as follows: […]
A compound according to this invention is used as the 6- or 7-aminoisoquinoline derivative. When the composition is topically administered to the eyes once or more daily as 40 microliter drops, the above composition decreases intraocular pressure in a patient suffering from glaucoma.

eyes [2] = test: as above; assay type: in vivo, patient; settings: composition of Example 90 (0.50 wt %); for effect on hyperemia, redness and ocular irritation: drop as needed; for neuroprotective effect: topical drop 4 times per day
[3] = system: eyes of a Dutch-belted rabbit; test: Intraocular pressure after a topical drop to the eyes of Dutch-belted rabbits; assay type: in vivo; settings: composition of Example 105 (0.30 wt %), 40 microliter drop topically once daily; for decrease of intraocular pressure: in some tests
Experimental: as §1
A pharmaceutical composition was prepared according to Example 105, where the 6-aminoisoquinoline derivative was (R)-2-(dimethylamino)-N-(1-hydroxyisoquinolin-6-yl)-2-(thiophen-3-yl)acetamide hydrochloride (E79). […] In some tests, the intraocular pressure was decreased by greater than 5 mm of mercury.

[4] = topical drop twice a day or as needed

Question: With CCCN[C@H](C(=O)Nc1ccc2cnccc2c1)C1CCCCC1 [Example E25, (S)-2-cyclohexyl-N-(isoquinolin-6-yl)-2-(propylamino)acetamide] as the compound, how does the “effect on intraocular pressure” value (eyes [1]; [4]) read?
Answer: substantially decreases intraocular pressure

Question: How did the “effect on intraocular pressure” value (eyes [1]; topical drop 4 times per day) turn out when CC(C)C[C@@H](C(=O)Nc1ccc2ccncc2c1)N(C)C(=O)OC(C)(C)C [Example E87, (S)-tert-butyl 1-(isoquinolin-7-ylamino)-4-methyl-1-oxopentan-2-yl(methyl)carbamate] was run?
Answer: substantially decreases intraocular pressure

Question: For O=S(=O)(Nc1ccc2cnccc2c1)C(NC1CCCCC1)c1ccccc1 (stereo not shown) [Example E50], which “effect on allergic symptoms” value (eyes [2]; topical drop twice per day) is on record?
Answer: substantially decreases allergic symptoms

Question: And the “effect on dry eye syndrome” value (eyes [2]; topical drop twice per day)?
Answer: relieves dry eye syndrome

Question: With CN[C@@H](CC(C)C)C(=O)Nc1ccc2ccncc2c1 [Example E88, (S)—N-(isoquinolin-7-yl)-4-methyl-2-(methylamino)pentanamide dihydrochloride] as the compound, how does the “effect on intraocular pressure” value (eyes [1]; topical drop 4 times per day) read?
Answer: substantially decreases intraocular pressure

Question: For O=C(Nc1ccc2cnccc2c1)[C@@H](c1ccccc1)N1CCNCC1 [Example E40, (R)—N-(isoquinolin-6-yl)-2-phenyl-2-(piperazin-1-yl)acetamide], which “effect on hyperemia, redness and ocular irritation” value (eyes [2]) is on record?
Answer: substantially decreases hyperemia, redness and ocular irritation

Question: Which results are given for CN(C)[C@@H](C(=O)Nc1ccc2c(O)nccc2c1)c1ccsc1 [Example E79, (R)-2-(dimethylamino)-N-(1-hydroxyisoquinolin-6-yl)-2-(thiophen-3-yl)acetamide hydrochloride]?
Answer: effect on intraocular pressure [3]: substantially decreased intraocular pressure; decrease of intraocular pressure [3]: greater than 5 mm of mercury

Question: How did the “effect on intraocular pressure” value (eyes [1]; topical drop 4 times per day) turn out when N[C@@H](C(=O)Nc1ccc2cnccc2c1)c1ccccc1 [Example E2, (R)-2-amino-N-(isoquinolin-6-yl)-2-phenylacetamide dihydrochloride] was run?
Answer: substantially decreases intraocular pressure

Question: What about the neuroprotective effect (eyes [2]) of the same compound?
Answer: serves as a neuroprotective agent

Question: With CN(C)[C@@H](C(=O)Nc1ccc2cnccc2c1)c1ccsc1.Cl [Example E80, (R)-2-(dimethylamino)-N-(isoquinolin-6-yl)-2-(thiophen-3-yl)acetamide hydrochloride] as the compound, how does the “effect on intraocular pressure” value [3] read?
Answer: substantially decreased intraocular pressure

Question: What about the “decrease of intraocular pressure” value [3] of the same compound?
Answer: greater than 5 mm of mercury

Question: How did the “effect on intraocular pressure” value (eyes [1]; topical drop 4 times per day) turn out when “(R)—N-(isoquinolin-6-yl amino)-2-(methylamino)-2-o-fluorophenyl acetamide dihydrochloride [Example E17]” was run?
Answer: substantially decreases intraocular pressure

Question: What about the neuroprotective effect (eyes [2]) of the same compound?
Answer: serves as a neuroprotective agent

Question: Cl.Cl.N[C@@H](C(=O)Nc1ccc2cnccc2c1)C1CCCCC1 [Example E9, (R)—N-(isoquinolin-6-ylamino)-2-amino-2-cyclohexyl acetamide dihydrochloride] was tested. Which “effect on allergic symptoms” value (eyes [2]; topical drop as needed) did it give?
Answer: substantially decreases allergic symptoms

Question: Which “effect on intraocular pressure” value (eyes [1]; topical drop twice per day) does the source give for CN(C)[C@@H](C(=O)Nc1ccc2cnccc2c1)c1ccccc1 [Example E3, (R)-2-(dimethylamino)-N-(isoquinolin-6-yl)-2-phenylacetamide dihydrochloride] here?
Answer: substantially decreases intraocular pressure

Question: What about the “effect on hyperemia, redness and ocular irritation” value (eyes [2]) of the same compound?
Answer: substantially decreases hyperemia, redness and ocular irritation

Question: O=C(Nc1ccc2cnccc2c1)[C@@H](c1ccccc1)N1CCCNC1 [Example E41, (R)—N-(isoquinolin-6-yl)-2-phenyl-2-(tetrahydropyrimidin-1(2H)-yl)acetamide] was tested. Which “effect on intraocular pressure” value (eyes [1]; [4]) did it give?
Answer: substantially decreases intraocular pressure

Question: Which “effect on intraocular pressure” value (eyes [1]; topical drop twice per day) does the source give for “(R)—N-(isoquinolin-6-yl-amino)-2-(ethylamino)-2-p-methylphenyl acetamide dihydrochloride [Example E18]” here?
Answer: substantially decreases intraocular pressure
